Experimental data reported in US11206830B2, “Herbicidal composition comprising glufosinate or a salt thereof and pyroxasulfone” (BASF SE, priority 2008, dated 2021).
Values joined by “and” are separate entries in the source; they are usually repeats but may differ in a detail not shown here. Equal values may be shown once. Read-outs that look alike come from different tables or passages of the source.

What was measured:
Assay type in all cases: in vivo
[1] = test system: Alopecurus myosuroides (ALOMY); experiment: greenhouse post-emergence herbicidal activity on ALOMY
Description: (§1) For the post-emergence treatment, the test plants were first grown to a height of 3 to 20 cm, depending on the plant habit, and only then treated. Here, the herbicidal compositions were suspended or emulsified in water as distribution medium and sprayed using finely distributing nozzles.
(§2) The respective herbicides B and/or safener were formulated as 10% by weight strength suspension concentrate and introduced to the spray liquor with the amount of solvent system used for applying the active compound. Herbicides A, C and/or safener were used as commercially available formulations and introduced to the spray liquor with the amount of solvent system used for applying the active compound. In the examples, the solvent used was water.
(§3) The test period extended over 21 days. During this time, the plants were tended, and their response to the treatments with active compound was evaluated.
(§4) The evaluation for the damage caused by the chemical compositions was carried out using a scale from 0 to 100%, compared to the untreated control plants. Here, 0 means no damage and 100 means complete destruction of the plants.
(§5) The value E, which is to be expected if the activity of the individual compounds is just additive, was calculated using the method of S. R. Colby (1967) “Calculating synergistic and antagonistic responses of herbicide combinations”, Weeds 15, p. 22 ff. For two component mixtures the value E was calculated by the following formula E=X+Y−(X·Y/100)
(§6) For three component mixtures the value E was calculated by the following formula E=X+Y+Z−(XY+XZ+YZ)/100+(X·YZ/10000) where X=effect in percent using herbicide A at an application rate a; • Y=effect in percent using herbicide B at an application rate b; • Z=effect in percent using herbicide C at an application rate c; • E=expected effect (in %) of A+B at application rates a+b. or • E=expected effect (in %) of A+B+C at application rates a+b+c.
(§7) If the value observed in this manner is higher than the value E calculated according to Colby, a synergistic effect is present.
(§8) Tables 1 to 12 relate to the herbicidal activity of the individual actives and of their combinations in post-emergence application assessed 20 DAT.

[2] = test system: Digitaria sanguinalis (DIGSA); experiment: greenhouse post-emergence herbicidal activity on DIGSA; settings: Digitaria sanguinalis, 480 h, read-out: % activity 20 DAT
Description: as §1, §2, §3, §4, §5, §6, §7, §8

[3] = test system: Lolium multiflorum (LOLMU); experiment: greenhouse post-emergence herbicidal activity on LOLMU
Description: as §1, §2, §3, §4, §5, §6, §7, §8

[4] = test system: Abutilon theophrasti (ABUTH); experiment: greenhouse post-emergence herbicidal activity on ABUTH
Description: as §1, §2, §3, §4, §5, §6, §7, §8

[5] = test system: Chenopodium album (CHEAL); experiment: greenhouse post-emergence herbicidal activity on CHEAL
Description: as §1, §2, §3, §4, §5, §6, §7, §8

Galium aparine (GALAP) = experiment: greenhouse post-emergence herbicidal activity on GALAP; settings: solo application
Description: as §1, §2, §3, §4, §5, §6, §7, §8

[6] = test system: Matricaria inermis (MATIN); experiment: greenhouse post-emergence herbicidal activity on MATIN
Description: as §1, §2, §3, §4, §5, §6, §7, §8

Setaria viridis (SETVI) = experiment: greenhouse post-emergence herbicidal activity on SETVI; settings: 480 h, read-out: % activity 20 DAT
Description: as §1, §2, §3
(§9) The evaluation for the damage caused by the chemical compositions was carried out using a scale from 0 to 100%, compared to the untreated control plants. […]
(§10) The value E, which is to be expected if the activity of the individual compounds is just additive, was calculated using the method of S. R. Colby (1967) “Calculating synergistic and antagonistic responses of herbicide combinations”, Weeds 15, p. […] For two component mixtures the value E was calculated by the following formula E=X+Y−(X·Y/100)
as §6, §7, §8

[7] = test system: Amaranthus retroflexus (AMARE); experiment: greenhouse post-emergence herbicidal activity on AMARE; settings: 480 h, read-out: % activity 20 DAT
Description: as §1, §2, §3, §9, §10, §6, §7, §8

Sinapis arvensis (SINAR) = experiment: greenhouse post-emergence herbicidal activity on SINAR; settings: Mutarda arvensis, 480 h, read-out: % activity 20 DAT
Description: as §1, §2, §3, §9, §10, §6, §7, §8

[8] = test system: Polygonum convolvulus (POLCO); experiment: greenhouse post-emergence herbicidal activity on POLCO; settings: Fallopia convolvulus, 480 h, read-out: % activity 20 DAT
Description: as §1, §2, §3, §4, §5, §6, §7, §8

Avena fatua (AVEFA) = experiment: greenhouse post-emergence herbicidal activity on AVEFA; settings: 480 h, read-out: % activity 20 DAT
Description: as §1, §2, §3, §4, §5, §6, §7, §8

[9] = test system: Echinochloa crus-galli (ECHCG); experiment: greenhouse post-emergence herbicidal activity on ECHCG; settings: Echinochloa crus-galli, 480 h, read-out: % activity 20 DAT
Description: as §1, §2, §3, §9, §10, §6, §7, §8

Question: Which results are given for `O=C(O)CNCP(=O)(O)O` [glyphosate, N-(phosphonomethyl)glycine]?
Answer: inhibition at 50 g/ha ([1]; Alopecurus myosuroides, 480 h, read-out: % activity 20 DAT, post-emergence, solo application, 50 g ai/ha): 20%; inhibition at 100 g/ha ([1]; Alopecurus myosuroides, 480 h, read-out: % activity 20 DAT, post-emergence, solo application, 100 g ai/ha): 40%; inhibition at 200 g/ha ([1]; Alopecurus myosuroides, 480 h, read-out: % activity 20 DAT, post-emergence, solo application, 200 g ai/ha): 85%; % activity 20 DAT ([1]; solo application, 50 g ai/ha): 15%; % activity 20 DAT ([1]; solo application, 100 g ai/ha): 30%; inhibition at 50 g/ha [2]: 70%; inhibition at 100 g/ha [2]: 85%; inhibition at 50 g/ha ([3]; Lolium multiflorum, 480 h, read-out: % activity 20 DAT, post-emergence, solo application, 50 g ai/ha): 40%; inhibition at 100 g/ha ([3]; Lolium multiflorum, 480 h, read-out: % activity 20 DAT, post-emergence, solo application, 100 g ai/ha): 75%; % activity 20 DAT ([3]; solo application, 50 g ai/ha): 45%; inhibition at 50 g/ha ([4]; Abutilon theophrasti, 480 h, read-out: % activity 20 DAT, post-emergence, solo application, 50 g ai/ha): 0%; inhibition at 200 g/ha ([4]; Abutilon theophrasti, 480 h, read-out: % activity 20 DAT, post-emergence, solo application, 200 g ai/ha): 70%; inhibition at 50 g/ha ([5]; Chenopodium album, 480 h, read-out: % activity 20 DAT, post-emergence, solo application, 50 g ai/ha): 40%; inhibition at 200 g/ha ([5]; Chenopodium album, 480 h, read-out: % activity 20 DAT, post-emergence, solo application, 200 g ai/ha): 80%; % activity 20 DAT ([5]; solo application, 50 g ai/ha): 30%; % activity 20 DAT ([5]; solo application, 100 g ai/ha): 50% and 85%; % activity 20 DAT (Galium aparine (GALAP); 50 g ai/ha): 10%; inhibition at 100 g/ha ([6]; Matricaria, 480 h, read-out: % activity 20 DAT, post-emergence, solo application, 100 g ai/ha): 90%; inhibition at 400 g/ha ([6]; Matricaria, 480 h, read-out: % activity 20 DAT, post-emergence, solo application, 400 g ai/ha): 95%; % activity 20 DAT ([6]; solo application, 50 g ai/ha): 65%; inhibition at 50 g/ha (Setaria viridis (SETVI)): 70%; inhibition at 50 g/ha [7]: 90%; inhibition at 50 g/ha (Sinapis arvensis (SINAR)): 80%; inhibition at 50 g/ha [8]: 30%; inhibition at 100 g/ha [8]: 50%; inhibition at 200 g/ha [8]: 50%; inhibition at 400 g/ha [8]: 90%; inhibition at 100 g/ha (Avena fatua (AVEFA)): 45%; inhibition at 50 g/ha [9]: 30%

Question: For `Cn1nc(C(F)(F)F)c(CS(=O)(=O)C2=NOC(C)(C)C2)c1OC(F)F` [pyroxasulfone, 3-[5-(difluoromethoxy)-1-methyl-3-(trifluoromethyl)pyrazol-4-ylmethylsulfonyl]-4,5-dihydro-5,5-dimethyl-1,2-oxazole], which inhibition at 12.5 g/ha ([1]; Alopecurus myosuroides, 480 h, solo application, 12.5 g ai/ha, read-out: % activity 20 DAT) is on record?
Answer: 30%

Question: What about the inhibition at 25 g/ha ([1]; Alopecurus myosuroides, 480 h, solo application, 25 g ai/ha, read-out: % activity 20 DAT) of the same compound?
Answer: 50%

Question: What about the inhibition at 50 g/ha ([1]; Alopecurus myosuroides, 480 h, solo application, 50 g ai/ha, read-out: % activity 20 DAT) of the same compound?
Answer: 50%

Question: What about the “% activity 20 DAT” value ([1]; solo application, 12.5 g ai/ha) of the same compound?
Answer: 40%

Question: What about the “% activity 20 DAT” value ([1]; solo application, 25 g ai/ha) of the same compound?
Answer: 70%

Question: What about the inhibition at 12.5 g/ha ([2]; solo application, 12.5 g ai/ha) of the same compound?
Answer: 40%

Question: And the inhibition at 25 g/ha ([2]; solo application, 25 g ai/ha)?
Answer: 50%

Question: And the inhibition at 12.5 g/ha ([3]; Lolium multiflorum, 480 h, solo application, 12.5 g ai/ha, read-out: % activity 20 DAT)?
Answer: 50%

Question: What about the inhibition at 25 g/ha ([3]; Lolium multiflorum, 480 h, solo application, 25 g ai/ha, read-out: % activity 20 DAT) of the same compound?
Answer: 50%

Question: And the “% activity 20 DAT” value ([3]; solo application, 12.5 g ai/ha)?
Answer: 55%

Question: What about the inhibition at 12.5 g/ha ([4]; Abutilon theophrasti, 480 h, solo application, 12.5 g ai/ha, read-out: % activity 20 DAT) of the same compound?
Answer: 40%

Question: And the inhibition at 50 g/ha ([4]; Abutilon theophrasti, 480 h, solo application, 50 g ai/ha, read-out: % activity 20 DAT)?
Answer: 70%

Question: What about the “% activity 20 DAT” value ([4]; solo application, 12.5 g ai/ha) of the same compound?
Answer: 60%

Question: And the “% activity 20 DAT” value ([4]; solo application, 25 g ai/ha)?
Answer: 65%

Question: What about the inhibition at 12.5 g/ha ([5]; Chenopodium album, 480 h, solo application, 12.5 g ai/ha, read-out: % activity 20 DAT) of the same compound?
Answer: 20%

Question: What about the inhibition at 50 g/ha ([5]; Chenopodium album, 480 h, solo application, 50 g ai/ha, read-out: % activity 20 DAT) of the same compound?
Answer: 20%

Question: And the “% activity 20 DAT” value ([5]; solo application, 12.5 g ai/ha)?
Answer: 35%

Question: And the inhibition at 25 g/ha (Galium aparine (GALAP); Galium aparine, 480 h, 25 g ai/ha, read-out: % activity 20 DAT)?
Answer: 80%

Question: And the “% activity 20 DAT” value (Galium aparine (GALAP); 12.5 g ai/ha)?
Answer: 70% and 40%

Question: What about the “% activity 20 DAT” value (Galium aparine (GALAP); 25 g ai/ha) of the same compound?
Answer: 85%

Question: And the inhibition at 12.5 g/ha ([6]; Matricaria, 480 h, solo application, 12.5 g ai/ha, read-out: % activity 20 DAT)?
Answer: 0%

Question: And the inhibition at 25 g/ha ([6]; Matricaria, 480 h, solo application, 25 g ai/ha, read-out: % activity 20 DAT)?
Answer: 0%

Question: What about the inhibition at 100 g/ha ([6]; Matricaria, 480 h, solo application, 100 g ai/ha, read-out: % activity 20 DAT) of the same compound?
Answer: 15%

Question: What about the inhibition at 12.5 g/ha (Setaria viridis (SETVI); solo application, 12.5 g ai/ha) of the same compound?
Answer: 70%

Question: And the inhibition at 12.5 g/ha ([7]; solo application, 12.5 g ai/ha)?
Answer: 75%

Question: And the inhibition at 12.5 g/ha (Sinapis arvensis (SINAR); solo application, 12.5 g ai/ha)?
Answer: 65%

Question: What about the inhibition at 12.5 g/ha ([8]; solo application, 12.5 g ai/ha) of the same compound?
Answer: 35%

Question: What about the inhibition at 25 g/ha ([8]; solo application, 25 g ai/ha) of the same compound?
Answer: 50%

Question: And the inhibition at 50 g/ha ([8]; solo application, 50 g ai/ha)?
Answer: 50%

Question: What about the inhibition at 100 g/ha ([8]; solo application, 100 g ai/ha) of the same compound?
Answer: 65%

Question: And the inhibition at 25 g/ha (Avena fatua (AVEFA); solo application, 25 g ai/ha)?
Answer: 75%

Question: And the inhibition at 12.5 g/ha ([9]; solo application, 12.5 g ai/ha)?
Answer: 75%
